Reference: ChEMBL document CHEMBL1155576, “Bioactive carotanes from Trichoderma virens” (2000)
The source made the active and inactive calls. No cut-off for these calls is given here.

Legend:
Assay type in all cases: functional
[1] = tested on: Triticum aestivum; test: Inhibition of etiolated wheat coleoptile growth at 10^-3 M relative to control
[2] = tested on: Triticum aestivum; test: Inhibition of etiolated wheat coleoptile growth at 10^-5 M relative to control
[3] = tested on: Triticum aestivum; test: Inhibition of etiolated wheat coleoptile growth at 10^-4 M relative to control

CC(C)[C@@]1(O)[C@@H]2CCC(CO)CC[C@@]2(C)C[C@@H]1O (some centres not stated) [TRICHOCARANE C]
inhibition at 1000 µM [1]: 86%

CC(C)[C@@]1(O)[C@@H]2CCC(CO)=CC[C@@]2(C)C[C@@H]1O [TRICHOCARANE B]
inhibition at 10 µM [2]: 19% | inhibition at 100 µM [3]: 40%

CC(C)[C@@]1(O)[C@@H]2CC[C@@]3(C)O[C@H]3C[C@@]2(C)C[C@@H]1O [TRICHOCARANE A]
inhibition at 100 µM [3]: 40%

CC(C)(O)[C@@]1(O)[C@@H]2CCC(CO)=CC[C@@]2(C)C[C@@H]1O
Activity [2]: inactive | Activity [1]: inactive | Activity [3]: inactive
